Measurements as given in US20210252159A1, “CONJUGATES OF CARTILAGE-HOMING PEPTIDES” (priority 2018, published 2021).
Like-named read-outs stand apart in the source and are kept apart here. Positions of bridges follow the written chain, without caps; N, C: chain ends. Residues, ends and D or L forms follow the SMILES beside them. *: point of attachment. X2 = CC(CCC(C)C(=O)*)C(=O)OCC(=O)[C@@]12O[C@H](C3CCCCC3)O[C@@H]1C[C@H]1[C@@H]3CCC4=CC(=O)C=C[C@]4(C)[C@H]3[C@@H](O)C[C@@]12C

What was measured:
IL-6 = assay type: in vivo, rats; settings: Dex 1274 and 127 nmol/kg IV; dCIC 1274 nmol/kg IA or 127 nmol/kg IV; conjugate 127, 51 and 13 nmol/kg IV; four hours after IL-1β
Protocol: In this example, an IL-1β Challenge rat model was used for the evaluation of peptides-drug conjugates. In this model, IL-1β is injected intra-articularly (i.e., IA) into a single knee joint to induce an inflammatory state that can be quantified by measuring IL-6 levels in joint lavage fluid (EXAMPLE 30). The primary goal of using this model was to induce a localized inflammatory state in the joint, as opposed to the systemic inflammation induced in other models, as a way to differentiate localized delivery of dCIC to the joint from systemic administration of the steroid. […] CBC counts were used to assess any reductions in various white blood cell levels, which are established markers of systemic exposure to glucocorticoids. […]
IL-6 was measured in knee lavage fluid using a Luminex assay and levels were normalized to total protein in the lavage fluid (FIG. 24). […] Terminal synovial fluid was collected from all animals and analyzed by Luminex 200 for IL-6 cytokine concentrations using EMD Milliplex MAP Rat Cytokine/Chemokine Magnetic Panel ([sequence]-65K). […] Thymus and spleen were harvested and their organ weights determined.

[1] = IL-1β challenge rat model, dose-ranging study: CBC, organ weights, tolerability; assay type: in vivo, rats
Protocol: IL-6 was measured in knee lavage fluid using a Luminex assay and levels were normalized to total protein in the lavage fluid (FIG. 24). Assessment of the PD inflammatory marker IL-6 in the knee joints of rats challenged with IL-1β was performed. Terminal synovial fluid was collected from all animals and analyzed by Luminex 200 for IL-6 cytokine concentrations using EMD Milliplex MAP Rat Cytokine/Chemokine Magnetic Panel ([…]-65K). […] Doses are listed as nmol/kg The masses of these doses are given below in TABLE 16. Two hours and forty-five minutes (i.e., 2.75 hrs) after administration of the test agents, animals were gently heated and blood was drawn from the tail vein for CBC analysis. Animals were then anesthetized with inhaled isoflurane and injected with 30 ng of IL-1β into the right knee (except for no IL-1β group). Four hours after administration of IL-1β (seven hours after administration of test agent) the animals were euthanized. Blood was drawn for a second CBC analysis and the right knee was lavaged for detection of IL-6 in the lavage fluid using a Luminex assay. Thymus and spleen were harvested and their organ weights determined.
In the same animals for which IL-6 secretion was measured, CBC data (e.g., lymphocyte counts) were also analyzed (FIG. 25) at an early time-point, 2.75 hrs post administration of the test article (FIG. 25A), and at euthanasia 7 hrs post administration (FIG. 25B). All treatments were administered as described above for the measurement of IL-6 secretion.
All treatments and test articles were administered as described above, except for an additional treatment group that received 510 nmol/kg of the peptide-drug conjugate peptide(SEQ ID NO: 105)-DMA-dCIC.

[2] = IL-1β challenge rat model, follow-up study: WBC, lymphocyte and monocyte counts; assay type: in vivo, rats; settings: 2.75 hours; peptide 127, conjugate 51 and 13 nmol/kg IV; dCIC 1274 IA, 127 and 51 IV
Protocol: This study was conducted in an identical manner to the dose-ranging study described further above in this EXAMPLE with regard to timing of test agent administration, collection of blood for CBC, injection of IL-1β, and lavage of the knee following euthanasia. In this study, the blood collected at euthanasia was submitted for both CBC and serum chemistry, and thymus and spleen weights were not measured because there was no evidence of treatment effect for dCIC and peptide-dCIC on these organs in the dose-ranging study. Assessment of biomarkers of steroid exposure in blood of rats as part of a PD study as shown in FIG. 27: # denotes dose administered by IA injection, all other treatments were administered IV. The treatment groups included the following test articles: (i) no IL-1β negative control (denoted “No IL-1b”); (ii); vehicle only control for the peptide-drug conjugate (denoted as “vehicle”), which was (5% DMSO in PBS); (iii) the peptide-only control peptide(SEQ ID NO: 105) at 127 nmol/kg (denoted over “Peptide” as “127”); (iv) 3 dose levels of dCIC, 1274 nmol/kg IA, 127 nmol/kg IV, 51 nmol/kg IV (denoted over “dCIC” as “1274 #”, “127” and “51” respectively); (v) and 2 dose levels of peptide(SEQ ID NO: 105)-DMA-dCIC (51 nmol/kg, 13 nmol/kg) (denoted over “Peptide(SEQ ID NO: 105)-DMA-dCIC” as “51” and “13” respectively), each of (i)-(v) with n=10 animals per dose group, except for no Il-1β control and peptide-only control arms which had n=6 animals per dose group. Doses are listed as nmol/kg. Statistical analysis was conducted using Wilcoxon rank-sum test with correction for multiple comparisons using Holm's method.

[3] = Solubility for formulation; assay type: physicochemical; settings: aqueous formulation for systemic delivery
Description: This study was designed to test whether dCIC delivered by a peptide would enable local suppression of inflammation in the joint while reducing systemic exposure to dCIC compared to that obtained when dosing therapeutic levels of dCIC alone. To enable systemic delivery of dCIC (unconjugated), it was formulated in 40% propylene glycol and then heated in order to solubilize the molecule. […] The peptide-drug conjugates of the disclosure can have a water solubility that allows conjugates to be formulated for systemic delivery, wherein at least some of the drugs used in the peptide-drug conjugates may not have sufficient water solubility for systemic administration when not conjugated to peptide. The conjugates comprising those drugs can home, target, migrate to, accumulate in, bind to, be retained by, or be redirected to a cartilage of a subject.

[4] = Hydrolysis assay of peptide-drug conjugates in rat plasma (free drug by LC/MS); assay type: in vitro ADME; settings: rat plasma, 37° C., read-out: half-life (in vitro hydrolysis, free dCIC) (converted)
Protocol: Peptide-drug conjugate peptide(SEQ ID NO: 105)-DMA-dCIC was incubated in rat plasma at 37° C. Samples were removed at regular intervals, processed by solvent extraction, and analyzed by LC/MS to quantitate free dCIC. 11 time-points were measured between 5 min and 56 hours with 3 replicates per time point. The assay was repeated two times.
In order to determine hydrolysis rates, conjugates can be diluted in PBS, rat plasma, or human plasma and incubated at 37 degrees. Samples can be taken at designated time-points (e.g., 1, 2, 3, 5, 10, 15, 20, 25, 30, 45, 60, or 90 minutes and/or hours after administration). Internal standards such as triamcinolone acetonide (TAA) can be added as an internal standard, and then active agent/TAA can be extracted using acetonitrile, for example. The samples can be dried down, reconstituted, and analyzed by LC/MS. Data can be normalized using Dex AUC/TAA AUC. Percent hydrolysis can be calculated using the average ratio for active agent AUC/TAA AUC at a time point of maximal drug release. A general method can include using a lyophilized, purified peptide-drug conjugates reconstituted in DMSO following production to generate stock solution at 20 mg/mL. Each conjugate stock can be brought to 0.25 mg/mL in each hydrolysis condition (1×DPBS, human plasma and rat plasma) in triplicate and rocked at 37° C. To quantitate free active agent, 100 μl of the hydrolyzed conjugate solution can be transferred into 1 mL acetonitrile at 4° C. at which time all plasma proteins and intact conjugates can precipitate. This can be performed repeatedly to generate a series of time points (0 hr, 0.5 hr, 1 hr, 2 hr, 4 hr, 6 hr, 8 hr, 24 hr, 32 hr). The acetonitrile solution can be spun at 17,000 g for 5 minutes, and the supernatant removed and added to a 96 well block. The pellet can then be resuspended in 500 μl acetonitrile and re-pelleted as before. The supernatant can be removed and added to the same well in the block. Samples can be prepared for analysis by drying under a nitrogen stream followed by reconstitution in 110 μl 45:55 ACN:Citrate 10 mM pH 5.5. To ensure optimal recovery the block can be shaken via plate shaker at 7,000 rpm for 5 minutes during the reconstitution step. Prior to LC/MS the samples can be transferred to a 96 well plate and centrifuged at 6,500 g for 15 minutes. Analysis can be performed on an Agilent 1260 Infinity series HPLC with inline 6120 single quad MS using acetonitrile, water (+0.1% TFA) gradient (shown below) on an InfinityLab Poroshell SB-C18 column. Quantification of free active agent (or drug) can be achieved through integration of active agent peaks of the TIC.
Lyophilized, purified peptide-drug conjugates were reconstituted in DMSO following production to generate stock solution at 20 mg/mL. Each conjugate stock was brought to 0.25 mg/mL in each hydrolysis condition (1×DPBS, human plasma and rat plasma) in triplicate and rocked at 37° C.
To quantitate free dexamethasone (Dex), 100 μl of the hydrolyzed conjugate solution was transferred into 1 mL acetonitrile at 4° C. at which time all plasma proteins and intact conjugates precipitated. This was performed repeatedly to generate a series of time points (0 hr, 0.5 hr, 1 hr, 2 hr, 4 hr, 6 hr, 8 hr, 24 hr, 32 hr). The corticosteroid triamcinolone acetonide (25 μl, 0.1 mg/mL in 45:55 ACN:Citrate 10 mM pH 5.5) was supplemented into the acetonitrile solution as an internal standard. The acetonitrile solution was spun at 17,000 g for 5 minutes, and the supernatant removed and added to a 96 well block. The pellet was resuspended in 500 μl acetonitrile and re-pelleted as before. The supernatant was removed and added to the same well in the block.
Samples were prepared for analysis by drying under a nitrogen stream followed by reconstitution in 110 μl 45:55 ACN:Citrate 10 mM pH 5.5. To ensure optimal recovery the block was shaken via plate shaker at 7,000 rpm for 5 minutes during the reconstitution step. […]

SMILES	IL-6 concentration in knee lavage fluid normalized to total protein, compared to vehicle (IL-6)	monocytes (CBC) ([1]; 2.75 hours post-treatment)	Lymphocyte counts as compared to vehicle control ([1]; 2.75 hrs post administration, Dex both doses, dCIC IA or IV)	spleen and thymus weights at euthanasia ([1]; 7 hours post administration)	Lymphocyte counts at euthanasia ([1]; 7 hours post administration, all dose levels)	Total WBC counts [2]	lymphocyte counts [2]	monocyte counts [2]	solubility [3]	half-life at 0.25 mg/mL ([4]; first assay, acetonitrile extraction of dCIC) [h]	half-life at 0.25 mg/mL ([4]; second assay, ethyl acetate extraction of dCIC) [h]	neutrophils (CBC) ([1]; 2.75 hours post-treatment, higher doses)	effect on lymphocyte counts as compared to Dex and dCIC alone ([1]; 2.75 hrs post administration, equimolar dose of 127 nmol/kg)	mortality ([1]; highest dose group (1274 nmol/kg IV))	CBC counts and all observations ([1]; lower effective doses (13-51 nmol/kg))	mortality ([1]; second highest dose group (510 nmol/kg), within 30-90 minutes of dosing)
C[C@]12C=CC(=O)C=C1CC[C@@H]1[C@@H]2[C@@H](O)C[C@@]2(C)[C@H]1C[C@H]1O[C@@H](C3CCCCC3)O[C@]12C(=O)CO [dCIC, des-ciclesonide]	decrease in IL-6 concentrations	dose dependent decrease	reduction in lymphocyte counts	minimal effect on the weight of both organs	either stable or starting to recover	substantial reduction	substantial reduction	substantial reduction	not soluble in water	–	–	–	–	–	–	–
CC[C@H](C)[C@@H]1NC(=O)[C@@H]2CSSC[C@H](NC(=O)[C@H](CCCNC(=N)N)NC(=O)[C@@H](NC(=O)[C@H](CC(N)=O)NC(=O)[C@@H](NC(=O)[C@@H]3CCCN3C(=O)[C@@H](NC(=O)CNC(=O)[C@H](CO)NC(=O)CNC(=O)C(C)CCC(C)C(=O)OCC(=O)[C@@]34O[C@H](C5CCCCC5)O[C@@H]3C[C@H]3[C@@H]5CCC6=CC(=O)C=C[C@]6(C)[C@H]5[C@@H](O)C[C@@]34C)C(C)C)[C@@H](C)CC)C(C)C)C(=O)N[C@@H](CCCNC(=N)N)C(=O)NCC(=O)N[C@@H](CO)C(=O)N[C@@H](CCCNC(=N)N)C(=O)N[C@@H](CC(=O)O)C(=O)N[C@H]3CSSC[C@H](NC(=O)[C@H](CCCNC(=N)N)NC(=O)[C@H](CO)NC(=O)[C@H](CC(N)=O)NC1=O)C(=O)N[C@@H](Cc1c[nH]cn1)C(=O)N[C@H](C(=O)N[C@H](C(=O)N1CCC[C@H]1C(=O)O)[C@@H](C)O)CSSC[C@H](NC(=O)[C@@H]1CCCN1C(=O)[C@H](CC(=O)O)NC(=O)[C@H](CC(C)C)NC3=O)C(=O)N[C@@H](CCCNC(=N)N)C(=O)N[C@@H](CCCNC(=N)N)C(=O)N[C@@H](C)C(=O)NCC(=O)N[C@@H](CCSC)C(=O)N[C@@H](CCCNC(=N)N)C(=O)N[C@@H](Cc1ccccc1)C(=O)NCC(=O)N[C@@H](CCCNC(=N)N)C(=O)N2 (some centres unmarked) [Compound 46, peptide(SEQ ID NO: 105)-DMA-dCIC] (X2-GSGVPINVRCRGSRDCLDPCRRAGMRFGRCINSRCHCTP-OH; disulfide 10-30, 16-35, 20-37 (inferred); C-terminus assumed)	clear reduction in IL-6 concentration	dose-dependent increase	–	minimal effect on the weight of both organs	–	–	–	–	soluble in PBS	8.5	5	dose-dependent increase	less effect on lymphocyte counts	died within 30 minutes of dosing	normal	three out of five animals
